“Also recorded” adds a separate entry of the source. Numbered stars: 1 amine (or outer) side, 2 acyl side, 3 side chain; on linkers, the order of the positions; unused ones are H or OH. Bridge positions count the residues as written; N and C are the ends. Square brackets hold non-standard residues; d marks the D form. Peptide text beside a SMILES is read from it. I, II: the chains in the order shown. Actinocin(9to1) = Cc1c2oc3c(C)ccc(C(=O)[*:1])c3nc-2c(C(=O)[*:2])c(N)c1=O; NMeV = CN[C@H](C(=O)O)C(C)C; Sar = CNCC(=O)O
How the values were obtained:
[1] = tested on: axon degeneration of DRG neurons following NGF withdrawal; test: Campenot chamber localized axon degeneration after NGF withdrawal (Tuj1 immunostaining); assay type: cell-based, mouse; conditions: for axon degeneration due to NGF deprivation, inhibitor applied to the axon (axon inhibition): inhibitor in axon compartment, 28 hours NGF deprivation of axons, anti-NGF antibody 50 μg/ml; for axon degeneration due to NGF deprivation, inhibitor applied to the cell body (cell body inhibition): inhibitor in cell body compartment with 25 ng/ml NGF, axons deprived of NGF
Method: Campenot chambers were used to perform the following experiments which allow for the separation of somal and axonal environments, and permit the induction of localized degeneration (see FIG. 1 and, e.g., Zweifel et al., Nat. Rev. Neurosci. 6(8):615-625, 2005). In such chambers, axon degeneration is localized and proceeds without apoptosis.
Mouse laminin (5 μg/ml in sterile filtered water; Invitrogen) was added to PDL coated 35 mm dishes (BD Biosciences) and they were incubated for 1 hour at 37° C., followed by two rinses in SQ water. The dishes were vacuum-dried and then air-dried in a laminar flow hood for 15 minutes. Prepared dishes were then scored with a pin rake (Tyler Research). Fifty microliters of NBM+MC solution containing NGF was applied across the resulting score tracks. The NBM+MC solution was made as follows: 1750 mg of methylcellulose was combined with 480 ml of Neurobasal (Invitrogen), to which was added 4.5 ml penicillin/streptomycin, 7.5 ml L-glutamine, and 10 ml B-27 serum-free supplement (Invitrogen). The solution was mixed for one hour at room temperature, overnight at 4° C., and one further hour at room temperature. The solution was then filter sterilized, and 50 ng/ml NGF (Roche) was added prior to use. High vacuum grease (VWR) was added to each Teflon divider under a dissection scope. The laminin coated PDL dishes were inverted and dropped onto the Teflon divider, with additional pressure added by use of a toothpick in the non-track-containing regions. Dishes were incubated for 1 hour at 37° C. Five hundred microliters of NBM+MC (50 ng/ml NGF) solution was added to each of the side compartments, and a grease barrier was added in front of the center cell slot.
Free E13.5 spinal cords were dissected from mouse embryos and placed into NBM+MC (25 ng/ml NGF) solution. DRGs were detached from the spinal cord with a tungsten needle. An NBM+MC-lubricated P200 pipette was used to move DRGs into a 1.5 ml tube. DRGs were pelleted with a tabletop centrifuge for 30 seconds. The supernatant was discarded and 0.05% Trypsin/EDTA (cold) was added. The pellet was resolubilized with a pipette and incubated at 37° C. for 15 minutes with constant agitation (650 RPM). The sample was again centrifuged and the supernatant discarded. The pellet was resuspended in warm NBM+MC (50 ng/ml NGF) solution and triturated with a flamed glass pipette 20 times, followed by trituration with a fire-bored glass pipette another 20 times. The samples were again centrifuged and the resulting pellets were resuspended in 0.5 ml NBM+MC (50 ng/ml NGF) solution. The cells were diluted to a final concentration of 2.5×10^6 cells/ml. The cell suspensions were loaded into a 1 ml syringe with a 22 gauge needle. The center slot of the Campenot divider was filled using the syringe (to a volume of at least 50 μl). The Campenot chamber was incubated overnight at 37° C. 2.5 ml NGF+MC (50 ng/ml NGF) solution was added to the center compartment and the grease gate was removed. The outer medium (cell body compartment) was replaced after three days with 2.5 ml NBM+MC medium (with 25 ng/ml NGF).
After five days in culture, the axonal compartment was washed three times with warmed NBM+MC (no NGF) solution. After the third wash, 500 μl NBM+MC (no NGF) solution was added to the axon compartment in combination with either 0.5% DMSO or an inhibitor. The cell body compartment was replaced with 2.5 ml NBM+MC medium (with 25 ng/ml NGF) containing either 0.5% DMSO or inhibitor. Fifty μg/ml anti-NGF antibody was added to the axonal compartment. Another axon compartment was maintained in NGF as a control.
After 28 hours of NGF deprivation for axons, and 25 hours of NGF deprivation for cell bodies, 8% PFA/30% sucrose solution was added directly to the culture medium at a 1:1 dilution and incubated for 30 minutes. The Teflon divider was removed after the first 15 minutes of addition. […]

[2] = tested on: dleu2 and tbx6 expression; test: Time course microarray analysis of neurons in Campenot chambers undergoing axon loss; assay type: cell-based, mouse; conditions: 30 μM inhibitor in outer compartment, NGF deprivation for 6 and 12 hours
Method: Based on the experiments described above, glycogen synthase kinase-3 (GSK-3) was identified as being a regulator of a genetic axon degeneration program acting specifically in the cell body to regulate distal axon degeneration. To identify GSK3 regulated axon degeneration genes, time course microarray analysis was performed on neurons selectively undergoing […], with or without GSK-3 inhibition.
Briefly, neurons were isolated and cultured in Campenot chambers as previously described. Campenot chambers were set up with 50 μM 5-fluoro-2′-deoxyuridine/uridine (both Sigma) added to the culture medium to reduce contamination by non-neuronal cells. On day 5, both axon compartments were washed three times with NGF-free medium and on the fourth wash, replaced with medium containing NGF (control) or NGF antibodies (50 μg/ml) (911, Genetech). The outer compartment was replaced with medium containing 30 μM of the GSK3 inhibitor ARA (EMD Biosciences) or 0.3% DMSO. RNA was extracted from neurons with or without GSK3 ARA treatment which had been cultured with NGF or deprived of NGF for 6 and 12 hours. RNA was prepared with Trizol® (Invitrogen) followed by the RNeasy® Micro Kit processing with DNAse I treatment (Qiagen) as described in Appendix C of the RNeasy® Micro Kit manual. For each condition, five Agilent Whole Mouse Genome microarray chips were used with single amplification.

SMILES | axon degeneration due to NGF deprivation, inhibitor applied to the axon (axon inhibition) [1] | axon degeneration due to NGF deprivation, inhibitor applied to the cell body (cell body inhibition) [1] | axon degeneration due to NGF deprivation, inhibitor applied to the axon (axon inhibition) ([1]; listed as actinomycin D) | axon degeneration due to NGF deprivation, inhibitor applied to the cell body (cell body inhibition) ([1]; listed as actinomycin D) | overexpression of dleu2 and tbx6 in neurons deprived of NGF [2] | overexpression of dleu2 and tbx6 in neurons deprived of NGF ([2]; listed as GSK3.ARA)
N#C/C(=C\c1ccc(O)c(O)c1)C(=O)NCCCc1ccccc1 [AG555] | exhibited less degeneration; also recorded: prevented axonal degradation | failed to prevent degeneration; also recorded: did not provide the same protective effect |  |  |  | 
Cc1c2oc3c(C)ccc(C(=O)N[C@@H]4C(=O)N[C@H](C(C)C)C(=O)N5CCC[C@H]5C(=O)N(C)CC(=O)N(C)[C@@H](C(C)C)C(=O)O[C@@H]4C)c3nc-2c(C(=O)N[C@@H]2C(=O)N[C@H](C(C)C)C(=O)N3CCC[C@H]3C(=O)N(C)CC(=O)N(C)[C@@H](C(C)C)C(=O)O[C@@H]2C)c(N)c1=O [Act D, actinomycin D] (I: T[dV]P[Sar][NMeV] / II: T[dV]P[Sar][NMeV]; ester I:1-I:C, II:1-II:C; linker I:N-II:N via Actinocin(9to1)) | did not prevent axonal degradation | axon degradation due to NGF deprivation was reduced | did not provide the same protective effect | prevented axonal degeneration |  | 
COc1ccc(CNC(=O)Nc2ncc([N+](=O)[O-])s2)cc1 [GSK3 ARA] |  |  |  |  | overexpression of these genes is not observed at any time point | Increased expression of dleu2 and tbx6 is not observed
COc1nccc(-c2c(-c3ccc(F)cc3)ncn2C2CCC(O)CC2)n1 (stereo not drawn) [SB239] | exhibited less degeneration; also recorded: prevented axonal degradation | failed to prevent degeneration; also recorded: did not provide the same protective effect |  |  |  | 
O=C1NC(=O)C(c2ccccc2[N+](=O)[O-])=C1Nc1ccc(O)c(Cl)c1 [SB415] | did not prevent axonal degradation; also recorded: did not provide the same protective effect | axon degradation due to NGF deprivation was reduced; also recorded: prevented axonal degeneration |  |  |  | 
